In patent US12084430B2, “Tricyclic urea compounds as JAK2 V617F inhibitors” (Incyte Corporation, priority 2022, dated 2024):
Where two headings read alike, the source gives them in different places.

Legend:
[1] = In vivo pharmacokinetics, cynomolgus monkey; set-up: species or system Cynomolgus monkeys; details: both sexes, plasma, oral 3.0 mg/kg, read-out: CYNO PO AUC
Procedure: (§1) Example H. In Vivo Pharmacokinetics
(§2) Test compounds were administered to male Sprague Dawley rats or male and female Cynomolgus monkeys intravenously or via oral gavage. For intravenous (IV) dosing, test compounds were dosed at 1 mg/kg using a formulation of 10% dimethylacetamide (DMAC), 10% propylene glycol (PG) in acidified saline via IV bolus for rat or 10 min IV infusion for monkey. For oral (PO) dosing, test compounds were dosed at 3.0 mg/kg using 5% DMAC in 0.5% methylcellulose in citrate buffer (pH˜2.5). Blood samples were collected at predose and various time points up to 24 hours postdose. All blood samples were collected using EDTA as the anticoagulant and centrifuged to obtain plasma samples. The plasma concentrations of test compounds were determined by LC-MS/MS methods. The measured plasma concentrations were used to calculate PK parameters by standard noncompartmental methods using Phoenix® WinNonlin software program (version 8.0, Pharsight Corporation) or similar software. In rats and monkeys, cassette dosing of test compounds were conducted to obtain preliminary PK parameters. In vivo pharmacokinetic experiments with male beagle dogs may be performed under the conditions described above.

FLT3 = biological target: T1, FLT3 (Homo sapiens, UniProt P36888); assay: FLT3 enzymatic assay; assay type: biochemical; details: 1 mM ATP
T1 sequence (P36888 27-993): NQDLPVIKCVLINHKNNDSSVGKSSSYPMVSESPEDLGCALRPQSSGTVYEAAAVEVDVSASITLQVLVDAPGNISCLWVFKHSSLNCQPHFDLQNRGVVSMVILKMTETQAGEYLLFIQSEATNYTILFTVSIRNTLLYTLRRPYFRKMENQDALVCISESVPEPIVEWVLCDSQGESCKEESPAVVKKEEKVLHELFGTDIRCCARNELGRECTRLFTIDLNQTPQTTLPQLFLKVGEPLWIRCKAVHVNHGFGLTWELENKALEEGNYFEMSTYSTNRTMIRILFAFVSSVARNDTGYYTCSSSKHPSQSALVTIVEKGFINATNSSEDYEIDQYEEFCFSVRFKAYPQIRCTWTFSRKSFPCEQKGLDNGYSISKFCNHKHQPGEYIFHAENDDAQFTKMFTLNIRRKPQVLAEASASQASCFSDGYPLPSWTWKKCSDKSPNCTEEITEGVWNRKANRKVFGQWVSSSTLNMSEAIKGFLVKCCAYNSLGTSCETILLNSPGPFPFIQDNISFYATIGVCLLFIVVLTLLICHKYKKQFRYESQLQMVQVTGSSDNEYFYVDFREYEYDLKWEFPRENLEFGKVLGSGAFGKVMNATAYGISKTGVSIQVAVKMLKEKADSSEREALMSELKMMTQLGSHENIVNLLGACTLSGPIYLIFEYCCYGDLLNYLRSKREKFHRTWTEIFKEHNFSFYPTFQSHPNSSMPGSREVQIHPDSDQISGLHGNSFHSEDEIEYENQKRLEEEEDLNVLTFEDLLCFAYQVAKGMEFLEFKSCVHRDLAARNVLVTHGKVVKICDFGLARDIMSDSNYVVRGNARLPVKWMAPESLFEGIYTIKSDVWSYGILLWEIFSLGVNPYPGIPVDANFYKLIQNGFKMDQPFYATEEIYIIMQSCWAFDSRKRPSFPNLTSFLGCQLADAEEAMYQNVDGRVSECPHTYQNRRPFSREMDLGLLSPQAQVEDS
How it was run: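 Kinase reaction at room temperature in HEPES 50 mM pH 7.0 with 10 mM MgCl2, 1 mM DTT: 0.011 nM FLT3, 1 mM ATP, 500 nM biotinylated TK substrate, 0.5% DMSO. After 60 min, HTRF read as 665/620 nm ratio; IC50 from fit of percent control activity versus log concentration.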

[2] = In vivo pharmacokinetics, rat; set-up: species or system Sprague Dawley rats; details: male, Sprague Dawley, plasma, oral 3.0 mg/kg
Procedure: as §1, §2

[3] = biological target: T2, catalytic domain (JH1, amino acids 826-1132) of human JAK2 (Homo sapiens, UniProt O60674); assay: JAK2 LanthaScreen JH1 binding assay; details: read-out: JH1 Bind IC50
T2 construct: catalytic domain (JH1, amino acids 826-1132) of human JAK2; FLAG (N); biotin (biotinylated); purchased Carna Biosciences 08-445-20N; host or cells: baculovirus expression system
Procedure: Example A. JAK2 LanthaScreen […] Binding Assay
JAK2 JH1 binding assay utilizes catalytic domain (JH1, amino acids 826-1132) of human JAK2 expressed as N-terminal FLAG-tagged, biotinylated protein in a baculovirus expression system (Carna Biosciences, Product #08-445-20N). The assay was conducted in black 384-well polystyrene plates in a final reaction volume of 20 μL. JAK2 JH1 (1.5 nM) was incubated with compounds (100 nL serially diluted in DMSO) in the presence of 50 nM fluorescent JAK2-JH1 tracer and 0.5 nM Streptavidin-Tb cryptate (Cisbio Part #610SATLB) in assay buffer (50 mM Tris, pH=7.5, 10 mM MgCl2, 0.01% Brij-35, 0.1% BSA, 1 mM EGTA, 5% Glycerol and 5 mM DTT). Non-specific binding was accessed in the presence of 2 mM ATP. After incubation for 2 hours at 25° C., LanthaScreen signals were read on a PHERAstar FS plate reader (BMG LABTECH). Data was analyzed with IDBS XLfit and GraphPad Prism 5.0 software using a four parameter dose response curve to determine IC50 for each compound.

T2 sequence (O60674 826-1132): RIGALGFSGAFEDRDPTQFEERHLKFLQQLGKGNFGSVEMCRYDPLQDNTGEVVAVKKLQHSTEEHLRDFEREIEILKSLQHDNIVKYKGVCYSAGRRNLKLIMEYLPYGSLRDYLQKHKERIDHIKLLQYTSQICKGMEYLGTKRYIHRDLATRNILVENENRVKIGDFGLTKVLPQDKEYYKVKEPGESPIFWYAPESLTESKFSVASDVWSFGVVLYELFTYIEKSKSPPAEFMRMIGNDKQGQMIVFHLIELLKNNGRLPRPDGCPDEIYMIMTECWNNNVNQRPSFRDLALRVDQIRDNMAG

SMILES	AUC [1]	IC50 (FLT3)	AUC [2]	IC50 ([3]; Table A)	IC50 ([3]; Table C)
COC(=O)N[C@@H]1CC[C@@H](n2c(=O)n(C)c3cnc4[nH]c(-c5cn(C)nc5OC)c(-c5ccc(F)cc5)c4c32)C1 [Example 1, Methyl ((1R,3R)-3-(8-(4-fluorophenyl)-7-(3-methoxy-1-methyl-1H-pyrazol-4-yl)-3-methyl-2-oxo-3,6-dihydroimidazo[4,5-d]pyrrolo[2,3-b]pyridin-1(2H)-yl)cyclopentyl)carbamate]	> 1.5 µM·h	> 2500 nM	> 1.5 µM·h	> 1000 nM	> 1000 nM
COC(=O)N[C@@H]1CC[C@@H](n2c(=O)n(C)c3cnc4[nH]c(-c5cn(C)nc5OC)c(-c5ccccc5)c4c32)C1 [Example 2, Methyl ((1R,3R)-3-(7-(3-methoxy-1-methyl-1H-pyrazol-4-yl)-3-methyl-2-oxo-8-phenyl-3,6-dihydroimidazo[4,5-d]pyrrolo[2,3-b]pyridin-1(2H)-yl)cyclopentyl)carbamate]	> 1.5 µM·h	> 2500 nM	> 1.5 µM·h	> 1000 nM	> 1000 nM
COC(=O)N[C@@H]1CC[C@@H](n2c(=O)n(C)c3cnc4[nH]c(-c5cn(C)nc5OC)c(-c5cccc(F)c5)c4c32)C1 [Example 3, Methyl ((1R,3R)-3-(8-(3-fluorophenyl)-7-(3-methoxy-1-methyl-1H-pyrazol-4-yl)-3-methyl-2-oxo-3,6-dihydroimidazo[4,5-d]pyrrolo[2,3-b]pyridin-1(2H)-yl)cyclopentyl)carbamate]	> 1.5 µM·h	> 2500 nM	> 1.5 µM·h	> 1000 nM	> 1000 nM
COC(=O)N[C@@H]1CC[C@@H](n2c(=O)n(C)c3cnc4[nH]c(-c5cn(C)nc5OC)c(-c5ccc(OC)c(F)c5)c4c32)C1 [Example 4, Methyl ((1R,3R)-3-(8-(3-fluoro-4-methoxyphenyl)-7-(3-methoxy-1-methyl-1H-pyrazol-4-yl)-3-methyl-2-oxo-3,6-dihydroimidazo[4,5-d]pyrrolo[2,3-b]pyridin-1(2H)-yl)cyclopentyl)carbamate]	> 1.5 µM·h	> 2500 nM	> 1.5 µM·h	> 1000 nM	> 1000 nM
[2H]C([2H])([2H])n1ncc2cc(-c3c(-c4cn(C)nc4OC)[nH]c4ncc5c(c34)n([C@@H]3CC[C@@H](NC(=O)OC)C3)c(=O)n5C)ccc21 [Example 5, Methyl ((1R,3R)-3-(7-(3-methoxy-1-methyl-1H-pyrazol-4-yl)-3-methyl-8-(1-(methyl-d3)-1H-indazol-5-yl)-2-oxo-3,6-dihydroimidazo[4,5-d]pyrrolo[2,3-b]pyridin-1(2H)-yl)cyclopentyl)carbamate]	> 1.5 µM·h	1250 to 2500 nM	0.5 to 1.5 µM·h	> 1000 nM	> 1000 nM
[2H]C([2H])([2H])n1cc(-c2[nH]c3ncc4c(c3c2-c2ccc3c(cnn3C([2H])([2H])[2H])c2)n([C@@H]2CC[C@@H](NC(=O)OC)C2)c(=O)n4C([2H])([2H])[2H])c(F)n1 [Example 6, Methyl ((1R,3R)-3-(7-(3-fluoro-1-(methyl-d3)-1H-pyrazol-4-yl)-3-(methyl-d3)-8-(1-(methyl-d3)-1H-indazol-5-yl)-2-oxo-3,6-dihydroimidazo[4,5-d]pyrrolo[2,3-b]pyridin-1(2H)-yl)cyclopentyl)carbamate]	> 1.5 µM·h	1250 to 2500 nM	0.5 to 1.5 µM·h	> 1000 nM	> 1000 nM
[2H]C([2H])([2H])n1cc(-c2[nH]c3ncc4c(c3c2-c2ccc(F)cc2)n([C@@H]2CC[C@@H](NC(=O)OC)C2)c(=O)n4C([2H])([2H])[2H])c(F)n1 [Example 7, Methyl ((1R,3R)-3-(7-(3-fluoro-1-(methyl-d3)-1H-pyrazol-4-yl)-8-(4-fluorophenyl)-3-(methyl-d3)-2-oxo-3,6-dihydroimidazo[4,5-d]pyrrolo[2,3-b]pyridin-1(2H)-yl)cyclopentyl)carbamate]	> 1.5 µM·h	> 2500 nM	> 1.5 µM·h	> 1000 nM	> 1000 nM
[2H]C([2H])([2H])n1cc(-c2[nH]c3ncc4c(c3c2-c2ccc3c(c2)COC3(C)C)n([C@@H]2CC[C@@H](NC(=O)OC)C2)c(=O)n4C([2H])([2H])[2H])c(F)n1 [Example 8, Methyl ((1R,3R)-3-(8-(1,1-dimethyl-1,3-dihydroisobenzofuran-5-yl)-7-(3-fluoro-1-(methyl-d3)-1H-pyrazol-4-yl)-3-(methyl-d3)-2-oxo-3,6-dihydroimidazo[4,5-d]pyrrolo[2,3-b]pyridin-1(2H)-yl)cyclopentyl)carbamate]	≤ 0.5 µM·h	> 2500 nM	> 1.5 µM·h	> 1000 nM	> 1000 nM
[2H]C([2H])([2H])Oc1ccc(-c2c(-c3cn(C([2H])([2H])[2H])nc3F)[nH]c3ncc4c(c23)n([C@@H]2CC[C@@H](NC(=O)OC)C2)c(=O)n4C([2H])([2H])[2H])cc1 [Example 9, Methyl ((1R,3R)-3-(7-(3-fluoro-1-(methyl-d3)-1H-pyrazol-4-yl)-8-(4-(methoxy-d3)phenyl)-3-(methyl-d3)-2-oxo-3,6-dihydroimidazo[4,5-d]pyrrolo[2,3-b]pyridin-1(2H)-yl)cyclopentyl)carbamate]	> 1.5 µM·h	250 to 1250 nM	> 1.5 µM·h	> 1000 nM	> 1000 nM
[2H]C([2H])([2H])n1cc(-c2[nH]c3ncc4c(c3c2-c2ccc(C(C)(C)O)cc2)n([C@@H]2CC[C@@H](NC(=O)OC)C2)c(=O)n4C([2H])([2H])[2H])c(F)n1 [Example 10, Methyl ((1R,3R)-3-(7-(3-fluoro-1-(methyl-d3)-1H-pyrazol-4-yl)-8-(4-(2-hydroxypropan-2-yl)phenyl)-3-(methyl-d3)-2-oxo-3,6-dihydroimidazo[4,5-d]pyrrolo[2,3-b]pyridin-1(2H)-yl)cyclopentyl)carbamate]	0.5 to 1.5 µM·h	250 to 1250 nM	> 1.5 µM·h	> 1000 nM	> 1000 nM
